Source: PMC3640040, “Partial Agonism of Taurine at Gamma-Containing Native and Recombinant GABAA Receptors” (PLoS ONE, 2013)

What was measured:
α2β3 = target: T1, α2β3 (Mus musculus; Homo sapiens, UniProt P26048+P28472); assay: two-electrode voltage clamp, Xenopus oocytes; type: cell-based; details: read-out: Taurine / EC50
T1 construct: gene Gabra2; binary GABA-A receptor, mouse alpha2 + human beta3; Xenopus oocytes
T1 sequence (P26048 29-451): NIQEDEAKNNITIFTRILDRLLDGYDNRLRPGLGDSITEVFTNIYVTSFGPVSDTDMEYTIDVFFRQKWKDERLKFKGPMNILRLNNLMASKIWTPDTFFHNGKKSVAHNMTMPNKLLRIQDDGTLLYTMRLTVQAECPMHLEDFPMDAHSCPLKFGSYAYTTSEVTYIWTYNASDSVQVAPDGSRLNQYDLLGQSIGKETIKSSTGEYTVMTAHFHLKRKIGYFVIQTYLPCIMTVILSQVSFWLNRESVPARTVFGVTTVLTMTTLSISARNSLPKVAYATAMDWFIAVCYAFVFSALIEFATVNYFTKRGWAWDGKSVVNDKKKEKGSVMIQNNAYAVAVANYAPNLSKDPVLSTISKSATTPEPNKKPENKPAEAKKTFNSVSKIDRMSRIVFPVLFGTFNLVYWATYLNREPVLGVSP
T1 sequence (P28472 26-473): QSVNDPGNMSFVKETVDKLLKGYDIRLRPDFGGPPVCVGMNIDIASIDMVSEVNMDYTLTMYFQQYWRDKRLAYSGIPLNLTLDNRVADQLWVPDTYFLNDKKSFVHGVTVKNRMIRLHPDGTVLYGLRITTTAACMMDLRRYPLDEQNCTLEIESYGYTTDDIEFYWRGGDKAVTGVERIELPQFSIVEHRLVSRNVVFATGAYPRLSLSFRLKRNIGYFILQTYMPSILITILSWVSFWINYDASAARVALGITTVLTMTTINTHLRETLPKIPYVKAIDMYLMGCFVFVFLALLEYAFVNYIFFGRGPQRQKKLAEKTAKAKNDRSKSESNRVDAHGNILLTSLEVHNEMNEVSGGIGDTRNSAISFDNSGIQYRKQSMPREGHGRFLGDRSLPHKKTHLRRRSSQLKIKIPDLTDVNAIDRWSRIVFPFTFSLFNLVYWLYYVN

α2β3δ = target: T2, α2β3δ (Mus musculus; Homo sapiens, UniProt P26048+P28472); assay: two-electrode voltage clamp, Xenopus oocytes; type: cell-based; details: read-out: Taurine / EC50
T2 construct: gene Gabra2; ternary GABA-A receptor, mouse alpha2 + human beta3 + human delta; Xenopus oocytes, cRNA ratio 10:1:10; with Gamma-aminobutyric acid receptor subunit delta
T2 sequence (P26048 29-451): T1 sequence (P26048 29-451)
T2 sequence (P28472 26-473): T1 sequence (P28472 26-473)
T2 sequence (O14764 25-452 partner): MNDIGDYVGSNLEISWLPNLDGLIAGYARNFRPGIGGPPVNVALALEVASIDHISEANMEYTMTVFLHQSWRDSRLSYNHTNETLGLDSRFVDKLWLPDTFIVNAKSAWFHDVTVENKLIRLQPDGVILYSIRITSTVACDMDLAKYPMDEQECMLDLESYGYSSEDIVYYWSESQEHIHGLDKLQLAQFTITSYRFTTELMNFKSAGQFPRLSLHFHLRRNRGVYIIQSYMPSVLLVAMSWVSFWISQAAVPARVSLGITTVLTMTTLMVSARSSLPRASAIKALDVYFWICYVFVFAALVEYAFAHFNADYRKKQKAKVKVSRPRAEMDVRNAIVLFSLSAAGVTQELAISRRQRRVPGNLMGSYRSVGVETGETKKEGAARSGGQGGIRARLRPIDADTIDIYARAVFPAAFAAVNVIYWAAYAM

α2β3γ2 = target: T3, α2β3γ2 (Mus musculus; Homo sapiens, UniProt P22723+P26048+P28472); assay: two-electrode voltage clamp, Xenopus oocytes; type: cell-based; details: read-out: Taurine / EC50
T3 construct: gene Gabra2; ternary GABA-A receptor, mouse alpha2 + human beta3 + mouse gamma2L; Xenopus oocytes, cRNA ratio 10:1:10; agonist site alpha/beta, zolpidem site alpha/gamma

α2β1γ2 (δ74–79) = target: T4, α2β1γ2 (δ74–79) (Mus musculus; Rattus norvegicus, UniProt P15431+P26048); assay: two-electrode voltage clamp, Xenopus oocytes; type: cell-based; details: read-out: Taurine / EC50
T4 construct: gene Gabra2; mouse alpha2 + rat beta1 + mouse gamma2L with IDIFFA (74-79) replaced by delta motif MTVFLH; printed primers also encode T81S and Y83R, text names 74-79 only; Xenopus oocytes; with Gamma-aminobutyric acid receptor subunit gamma-2
Text: two-electrode voltage clamp, Xenopus oocytes on α2β1γ2 (δ74–79)

α2β1δ = target: T5, α2β1δ (Rattus norvegicus; Mus musculus; Homo sapiens, UniProt P15431+P26048); assay: two-electrode voltage clamp, Xenopus oocytes; type: cell-based; details: read-out: Taurine / EC50
T5 construct: gene Gabra2; ternary GABA-A receptor, mouse alpha2 + rat beta1 + human delta; Xenopus oocytes, cRNA ratio 10:1:10; with Gamma-aminobutyric acid receptor subunit delta

α2β1 = target: T6, α2β1 (Mus musculus; Rattus norvegicus, UniProt P15431+P26048); assay: two-electrode voltage clamp, Xenopus oocytes; type: cell-based; details: read-out: Taurine / EC50
T6 construct: gene Gabra2; binary GABA-A receptor, mouse alpha2 + rat beta1; Xenopus oocytes
Text: two-electrode voltage clamp, Xenopus oocytes on α2β1

α2β1γ2 = target: T7, α2β1γ2 (Rattus norvegicus; Mus musculus, UniProt P15431+P26048); assay: two-electrode voltage clamp, Xenopus oocytes; type: cell-based; details: read-out: Taurine / EC50
T7 construct: gene Gabra2; ternary GABA-A receptor, mouse alpha2 + rat beta1 + mouse gamma2L; Xenopus oocytes, cRNA ratio 10:1:10; with Gamma-aminobutyric acid receptor subunit gamma-2

α2β3γ2 (δ74–79) = target: T8, α2β3γ2 (δ74–79) (Mus musculus; Homo sapiens, UniProt P22723+P26048+P28472, P22723:A117H/P22723:D113T/P22723:F116L/P22723:I112M/P22723:I114V/P22723:T119S/P22723:Y121R); assay: cell-based; details: read-out: % of control GABA current at 1 μM
T8 construct: gene Gabra2
T8 sequence (P26048 29-451): T1 sequence (P26048 29-451)
T8 sequence (P28472 26-473): T1 sequence (P28472 26-473)
T8 sequence (P22723 39-474 I112M/D113T/I114V/F116L/A117H/T119S/Y121R): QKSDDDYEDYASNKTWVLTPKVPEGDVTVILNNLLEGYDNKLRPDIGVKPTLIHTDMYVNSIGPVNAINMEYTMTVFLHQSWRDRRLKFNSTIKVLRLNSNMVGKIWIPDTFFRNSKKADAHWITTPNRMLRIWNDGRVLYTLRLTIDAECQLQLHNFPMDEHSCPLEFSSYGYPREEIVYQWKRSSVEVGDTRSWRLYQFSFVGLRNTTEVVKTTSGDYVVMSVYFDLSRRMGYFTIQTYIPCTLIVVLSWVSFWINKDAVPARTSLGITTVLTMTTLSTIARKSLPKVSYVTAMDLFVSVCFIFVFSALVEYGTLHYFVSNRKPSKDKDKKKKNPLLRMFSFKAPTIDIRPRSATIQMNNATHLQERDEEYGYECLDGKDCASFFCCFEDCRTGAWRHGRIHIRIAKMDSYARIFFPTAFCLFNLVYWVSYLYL

T7 sequence (P26048 29-451 F77I): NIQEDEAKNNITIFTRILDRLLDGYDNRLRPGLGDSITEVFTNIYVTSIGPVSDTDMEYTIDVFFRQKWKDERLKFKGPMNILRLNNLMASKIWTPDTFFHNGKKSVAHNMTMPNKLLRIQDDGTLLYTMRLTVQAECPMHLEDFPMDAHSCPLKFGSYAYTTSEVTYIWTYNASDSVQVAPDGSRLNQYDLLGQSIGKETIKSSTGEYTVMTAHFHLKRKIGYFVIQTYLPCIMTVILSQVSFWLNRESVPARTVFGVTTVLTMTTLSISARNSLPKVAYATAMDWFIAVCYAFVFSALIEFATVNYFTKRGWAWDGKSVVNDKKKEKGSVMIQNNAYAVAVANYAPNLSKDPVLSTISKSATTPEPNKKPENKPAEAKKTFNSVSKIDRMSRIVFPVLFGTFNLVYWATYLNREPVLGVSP
T7 sequence (P15431 26-474): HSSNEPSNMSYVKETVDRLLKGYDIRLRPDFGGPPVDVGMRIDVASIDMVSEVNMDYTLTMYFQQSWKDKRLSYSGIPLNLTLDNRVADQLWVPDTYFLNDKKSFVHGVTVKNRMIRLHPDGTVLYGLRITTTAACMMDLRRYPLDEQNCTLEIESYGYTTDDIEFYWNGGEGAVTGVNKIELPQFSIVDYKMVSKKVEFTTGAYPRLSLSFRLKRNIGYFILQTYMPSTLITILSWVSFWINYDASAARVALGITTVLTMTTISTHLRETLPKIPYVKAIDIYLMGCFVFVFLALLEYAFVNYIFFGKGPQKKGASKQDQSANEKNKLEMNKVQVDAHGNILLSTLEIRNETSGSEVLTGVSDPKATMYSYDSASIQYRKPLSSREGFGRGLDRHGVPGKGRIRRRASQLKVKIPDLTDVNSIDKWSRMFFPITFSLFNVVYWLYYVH
T7 sequence (P22723 39-474 partner): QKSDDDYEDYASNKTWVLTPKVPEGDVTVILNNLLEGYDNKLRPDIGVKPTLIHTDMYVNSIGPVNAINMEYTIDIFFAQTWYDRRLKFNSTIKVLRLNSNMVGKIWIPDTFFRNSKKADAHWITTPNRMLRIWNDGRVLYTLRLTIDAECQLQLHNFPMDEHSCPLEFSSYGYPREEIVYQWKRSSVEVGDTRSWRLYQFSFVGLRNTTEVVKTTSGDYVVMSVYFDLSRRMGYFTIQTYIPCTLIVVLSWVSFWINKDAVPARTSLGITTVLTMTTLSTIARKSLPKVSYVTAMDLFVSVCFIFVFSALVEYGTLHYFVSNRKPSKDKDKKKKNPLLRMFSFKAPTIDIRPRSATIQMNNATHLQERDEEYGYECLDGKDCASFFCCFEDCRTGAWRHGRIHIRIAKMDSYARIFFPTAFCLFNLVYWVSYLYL
T4 sequence (P15431 26-474, one chain of several): as the sequence (P15431 26-474) above
T6 sequence (P15431 26-474, one chain of several): as the sequence (P15431 26-474) above
T5 sequence (P15431 26-474, one chain of several): as the sequence (P15431 26-474) above
T3 sequence (P22723 39-474, one chain of several): as the sequence (P22723 39-474 partner) above

Compound	EC50 (α2β3)	EC50 (α2β3δ)	EC50 (α2β3γ2)	EC50 (α2β1γ2 (δ74–79))	EC50 (α2β1δ)	EC50 (α2β1)	EC50 (α2β1γ2)	remaining activity at 1 µM (α2β3γ2 (δ74–79))
NCCS(=O)(=O)O [taurine, 2-aminoethane sulfonic acid]	24.5 ± 11.2 mM	35.4 ± 2 mM	51.2 ± 19.8 mM	40.5 ± 6.9 mM	67.8 ± 15.9 mM	81.8 ± 24.9 mM	76.1 ± 3.9 mM	–
Cc1ccc(-c2nc3ccc(C)cn3c2CC(=O)N(C)C)cc1 [zolpidem]	–	–	–	–	–	–	–	97 ± 7%
